Columns and labels:
[1] = system: Human leukemia cells (HL-60); experiment: Apoptosis of cancer cells (HL-60); assay type: cell-based
Description: (§1) Human leukemia cells (HL-60) were grown in RPMI Medium 1640 supplemented with 10% (v/v) heat-inactivated FBS (56° C. for 30 min) at 37° C. in a humidified 95% air/5% CO2 atmosphere. Cells were seeded at a level of 2×10^5 cells/ml. Cells were allowed to attain a maximum density of 1.2×10^6 cells/ml before being passed by dilution into fresh medium to a concentration of 2×10^5 cells/ml.
Apoptosis determined by the following process: Cell pellets containing 5×10^6 cells were fixed with 2.5% glutaraldehyde in cacodylate buffer (pH 7.4), dehydrated through graded alcohol, and infiltrated with LX-112 epoxy resin. After overnight polymerization at 60° C. 1-μm sections were cut with glass knives using a LKB Nova microtome. The sections were stained with 1% toluidine blue and coverslipped.
DNA electrophoresis: Untreated and treated HL-60 cells collected by centrifugation, washed in phosphate buffered saline and re-suspended at a concentration of 5×10^6 cells and 0.1% RNase A. The mixture was incubated at 37° C. for 30 min and then incubated for an additional 30 min at 37° C. with 1 ml protease K. Buffer was added and 25 μl of the tube content transferred to the Horizontal 1.5% agarose gel electrophoresis was performed at 2 V/cm. DNA in gels visualized under UV light after staining with ethidium Bromide (5 μg/ml).
DNA fragmentation assays: DNA cleavage was performed, quantitation of fractional solubilized DNA by diphenylamine assay and the percentage of cells harboring fragmented DNA determined by in labeling techniques. For the diphenylamine assay, 5×10^6 cells were lysed in 0.5 mL lysis buffer (5 mmol/L Tris-HCl, 20 mmol/L DTA, and 0.5% Triton X-100, pH 8.0) at 4° C. Lysates were centrifuged (15,000 g) for separation of high molecular weight DNA (pellet) and DNA cleavage products (supernatant). DNA was precipitated with 0.5 N perchloric acid and quantitated using diphenylamine reagent. The cell cycle distribution was determined 4 hours after addition of drug and represents mean±SD of 5 independent experiments.
Human promyelocytic leukemia cells (HL-60) were grown in RPMI Medium 1640 supplemented with 10% (v/v) heat-inactivated FBS (56° C. for 30 min) at 37° C. in a humidified 95% air/5% CO2 atmosphere. Cells were seeded at a level of 2×10^5 cells/ml. Cells were allowed to attain a maximum density of 1.2×10^6 cells/ml before being passed by dilution into fresh medium to a concentration of 2×10^5 cells/ml. Apoptosis determined by the following process: Cell pellets containing 5×10^6 cells ere fixed with 2.5% glutaraldehyde in cacodylate buffer (pH 7.4), dehydrated through graded alcohol, and infiltrated with LX-112 epoxy resin. After overnight polymerization at 60° C. 1-μm sections were cut with glass knives using a LKB Nova microtome. The sections were stained with 1% toluidine blue and coverslipped. […]
DNA fragmentation assays: DNA cleavage was performed, quantitation of fractional solubilized DNA by diphenylamine assay and the percentage of cells harboring fragmented DNA determined by in labeling techniques. […] DNA was precipitated with 0.5N perchloric acid and quantitated using diphenylamine reagent. […]

HL-60 = experiment: Inhibition of tumor cell proliferation, HL-60; assay type: cell-based, human; conditions: for Inhibition (%): 72 hours
Description: as §1
Cell lines were routinely cultured in the RPMI1640 medium supplemented 20% fetal calf serum. The experiment was carried out in 96 microplate, each well had 5×10^5 cells and given desired concentration of drug (1 μg/ml). Then the plate was incubated at 37° C. in an atmosphere of humidified air enriched with 5 percent carbon dioxide for 72 hours. Inhibition percent rate of tumor cell proliferation was obtained according to the bellow formula. [formula]
Human tumor cell lines: Hela leukemia HL-60, malignant melanocarcinoma B16, oral epidermoid carcinoma (KB), lung carcinoma (A549), breast carcinoma MCF-7, adenocarcinoma of stomach.
Animal tumor cell lines: Walker carcinoma, LLC-WRC-256, malignant melanoma (RMMI 1846), 3T3, and S-180 sarcoma (CCRF-180). All lines were routinely cultured in the RPMI1640 medium supplemented 20% fetal calf serum. The experiment was carried out in 96 microplate, each well had 5×10^5 cells and given desired concentration of 1 μg/ml (1×10^−6 g/ml) drug. Then the plate was incubated at 37° C. in an atmosphere of humidified air enriched with 5 percent carbon dioxide for 72 hours.
Inhibition percent rate of tumor cell proliferation was obtained according to the bellow formula. [formula] […]

L1210 = experiment: Growth of transplanted tumor, L1210 (tumor weight); assay type: in vivo, mice; conditions: 20 mg/kg i.p. from second day, tumor weight on 12th day
Description: Male mice, weight 20-22 g, were used in the experiment. 1×10^7 tumor cells were injected to mouse and PK-HHT-NP injected intraperitoneally began second day. All mice were sacrificed on the 12th days, isolated the tumor and weighed and calculated the inhibition rate of tumor weight.
Male mice, weight 20-22 g, were used in the experiment. 1×10^7 tumor cells were injected to mouse and CUR and PK-CUR-NP injected intraperitoneally began second day. All mice were sacrificed on the 12th days, isolated the tumor and weighed and calculated the inhibition rate of tumor weight.
Male mice, weight 20-22 g, were used in the experiment. 1×10^7 tumor cells were injected to mouse and ELE injected intraperitoneally began second day. All mice were sacrificed on the 12th days, isolated the tumor and weighed and calculated the inhibition rate of tumor weight.
Male mice, weight 20-22 g, were used in the experiment. 1×10^7 tumor cells were injected to mouse and CPT injected intraperitoneally began second day. All mice were sacrificed on the 12th days, isolated the tumor and weighed and calculated the inhibition rate of tumor weight.

| Compound | Apoptosis (%) ([1]; concentration not given) | inhibition at 0.05 µg/mL (HL-60; Homo sapiens, HL-60, 72 h, 50 ng/ml) [%] | Inhibition (%) of transplanted tumor (L1210) [%] | Inhibition (%) (HL-60; 50 ng/ml) | Apoptosis (%) ([1]; Concentration 20 μm) | Apoptosis (%) ([1]; Example 59) | inhibition at 1 µg/mL (HL-60; Homo sapiens, HL-60, 72 h, 1 μg/ml) [%] | inhibition at 1 µg/mL (HL-60; Homo sapiens, HL-60, 72 h, Example 23, 1 μg/ml, NP dose equivalent of free HHT) [%] |
| --- | --- | --- | --- | --- | --- | --- | --- | --- |
| CC[C@@]1(O)C(=O)OCc2c1cc1n(c2=O)Cc2cc3ccccc3nc2-1 [CPT, Camptothecin] | 65.8 ± 9.8 | 70.8 ± 11.2 | 68.5 ± 9.8 | – | – | – | – | – |
| C=C1C[C@@]2(O)O[C@@]3(C[C@H]2C(C)C)[C@@H](C)CC[C@@H]13 [CUR, Curcumol] | 68.3 ± 7.8 | – | 70.8 ± 9.0 | 76.8 ± 12.8 | – | – | – | – |
| COC(=O)C[C@](O)(CCCC(C)(C)O)C(=O)O[C@@H]1C(OC)=C[C@]23CCCN2CCc2cc4c(cc2[C@H]13)OCO4 [HHT, Homoharringtonine] | – | – | 87 ± 9 | – | 68.3 ± 7.6 | 68.3 ± 7.6 | 70.8 ± 9 | 70.5 ± 8 |
| Eelemene | 69.2 ± 9.1 | – | 71.8 ± 9.5 | 78.9 ± 12.5 | – | – | – | – |

From patent publication US20040192641A1, “Special preparation of anticancer drugs made by novel nanotechnology” (priority 2003, published 2004)
